Test results from patent publication US20260364190A1, “ANTIBODY DRUG CONJUGATE PLATFORMS” (BEONE MEDICINES I GMBH, priority 2023, published 2026).

What was measured:
[1] = test system: A375 cells; assay: Payload cellular killing in A375 cancer line; assay type: cell-based, human; conditions: Cell Titer-Glo
Procedure: A375 (ATCC, CRL-1619). […] The base medium for A375 is DMEM, high glucose, GlutaMAX™ Supplement (Gibco, 10566024). […] The cell line was grown in a humidified 5% CO2 atmosphere at 37 °C, and was regularly tested for the presence of mycoplasma with MycoAlert™ PLUS Mycoplasma Detection Kit (Lonza, LT07-710).
(§1) Payload cellular killing was assessed in A375 and Calu-6 cancer lines. Cells were seeded (A375 (1E3/well) or Calu-6 (2E3/well)) into a 96-well plate (Greiner: 655090), at 100 μl/well and incubated at 37 °C, 5% CO2, overnight. Fresh growth medium was added containing varying concentrations of compounds, 50 μl/well, and incubated at 37 °C, 5% CO2, for 6 days. The cell viability was detected by Cell Titer-Glo (Promega, G7573). 70 μL of CellTiter-Glo® Reagent was added to each well. The plates were allowed to incubate at room temperature for 10 minutes to stabilize the luminescent signal. The plates were analyzed with a microplate reader.

[2] = test system: Calu-6 cells; assay: Payload cellular killing in Calu-6 cancer line; assay type: cell-based; conditions: 6 days, Cell Titer-Glo
Procedure: Calu-6 (ATCC, HTB-56). […] The base medium for Calu-6 is Eagle's Minimum Essential Medium (ATCC, 30-2003). […] The cell line was grown in a humidified 5% CO2 atmosphere at 37 °C, and was regularly tested for the presence of mycoplasma with MycoAlert™ PLUS Mycoplasma Detection Kit (Lonza, LT07-710).
as §1

SMILES	EC50 ([1]; Homo sapiens, A-375, 6 days) [nM]	Emax ([2]; Homo sapiens) [%]	EC50 ([1]; 6 days) [nM]	Emax (%) ([1]; 6 days)	EC50 [2] [nM]	Emax (%) [2] [%]	EC50 ([2]; Homo sapiens) [nM]	Emax ([1]; Homo sapiens, A-375, 6 days) [%]
CC[C@@]1(O)C(=O)OCc2c1cc1n(c2=O)Cc2c-1nc1cc(F)c(C)c3c1c2C(CN(C)CCO)CC3 (stereo partly drawn) [P11, (9S)-9-ethyl-5-fluoro-9-hydroxy-1-(((2-hydroxyethyl)(methyl)amino)methyl)-4-methyl-1,2,3,9,12,15-hexahydro-10H,13H-benzo[de]pyrano[3′,4′:6,7]indolizino[1,2-b]quinoline-10,13-dione]	0.8	98	–	–	–	–	–	–
CC[C@@]1(O)C(=O)OCc2c1cc1n(c2=O)Cc2c-1nc1cc3c(c4c1c2[C@@H](NC(=O)C(C)(F)CO)CC4)OCO3 (stereo partly drawn) [P9, N-((1S,10S)-10-ethyl-10-hydroxy-11,14-dioxo-2,3,10,11,14,16-hexahydro-1H,13H-benzo[de][1,3]dioxolo[4,5-g]pyrano[3′,4′:67]indolizino[1,2-b]quinolin-1-yl)-2-fluoro-3-hydroxy-2-methylpropanamide]	–	–	2.1	100.0	0.9	98.3	–	–
CC[C@@]1(O)C(=O)OCc2c1cc1n(c2=O)Cc2c-1nc1cc(F)c(C)c3c1c2C(CCO)CC3 (stereo partly drawn) [P5, (9S)-9-ethyl-5-fluoro-9-hydroxy-1-(2-hydroxyethyl)-4-methyl-1,2,3,9,12,15-hexahydro-10H,13H-benzo[de]pyrano[3′,4′:6,7]indolizino[1,2-b]quinoline-10,13-dione]	–	–	–	100.0	–	98.1	–	–
CC[C@@]1(O)C(=O)OCc2c1cc1n(c2=O)Cc2c-1nc1cc(F)c(C)c3c1c2C(CCCO)CC3 (stereo partly drawn) [P3, (9S)-9-ethyl-5-fluoro-9-hydroxy-1-(3-hydroxypropyl)-4-methyl-1,2,3,9,12,15-hexahydro-10H,13H-benzo[de]pyrano[3′,4′:6,7]indolizino[1,2-b]quinoline-10,13-dione]	–	–	–	100.0	–	99.2	0.2	–
CC[C@@]1(O)C(=O)OCc2c1cc1n(c2=O)Cc2c-1nc1cc3c(c4c1c2[C@@H](NC(=O)OCCO)CC4)OCO3 [P10, 2-hydroxyethyl ((1S,10S)-10-ethyl-10-hydroxy-11,14-dioxo-2,3,10,11,14,16-hexahydro-1H,13H-benzo[de][1,3]dioxolo[4,5-g]pyrano[3′,4′:6,7]indolizino[1,2-b]quinolin-1-yl)carbamate]	2.2	97.4	–	–	–	–	0.7	100
